Values quoted from earlier work in patent US5668009A, “Methods for treating cotton-containing fabrics with CBH I enriched cellulase” (Genencor International, Inc., priority 1995, dated 1997).

Assays:
[1] = biological target: β-Glucosidase (BG) components of fungal cellulase; settings: competitive inhibition; general characterisation of BG components; read-out: Ki (glucose), competitive inhibition
[2] = biological target: exo-cellobiohydrolase (CBH) type components, as characterized for CBH I and CBH II from Trichoderma reesei; settings: competitive inhibition; general characterisation of CBH components; read-out: Ki (cellobiose), competitive inhibition

Ki [2] [mM] | SMILES | Ki [1] [mM]
– | OC[C@H]1OC(O)[C@H](O)[C@@H](O)[C@@H]1O (some centres unmarked) [glucose] | ~1
~1 | OC[C@H]1O[C@@H](O[C@H]2[C@H](O)[C@@H](O)C(O)O[C@@H]2CO)[C@H](O)[C@@H](O)[C@@H]1O (some centres unmarked) [cellobiose] | –
